Patent US10517889B2, “Modulators of SMAD7 expression” (Ionis Pharmaceuticals, Inc., priority 2017, dated 2019)
Strand notation (5' to 3'): a small letter for the sugar, then the base; units joined by * are phosphorothioate-linked, units joined directly phosphodiester-linked; [ ] holds rarer units or linkages, { } end groups; capitals alone tell only the bases. k = constrained ethyl (cEt); [5mC] = 5-methylcytosine; d = 2'-deoxy (DNA)

Each substance was assayed on human SMAD7 mRNA (assay: Antisense inhibition of human SMAD7 mRNA expression in Hep3B cells by 3-10-3 cEt gapmers, 10,000 nM, electroporation (Example 2)). Details: Hep3B cells, electroporation with 10,000 nM antisense oligonucleotide, approximately 24 hours, SMAD7 mRNA by RT-PCR (RTS5062), relative to untreated control cells.
Type: cell-based
Summary of the method: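 Hep3B, 20,000 cells/well; electroporation, 10,000 nM ASO; ~24 h. Readout: SMAD7 mRNA by qRT-PCR (RTS5062), RIBOGREEN-normalised; % inhibition vs untreated.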

Question: “830014 (antisense kG*kG*kT*dG*d[5mC]*d[5mC]*dA*dG*dT*d[5mC]*dT*d[5mC]*dA*kA*kA*kT) [compound 830014]” was tested. Which “% Inhibition” value did it give?
Answer: 22%

Question: How did the “% Inhibition” value turn out when “830015 (antisense kG*k[5mC]*kT*dG*dG*dT*dG*d[5mC]*d[5mC]*dA*dG*dT*d[5mC]*kT*k[5mC]*kA) [compound 830015]” was run?
Answer: 56%

Question: How did the “% Inhibition” value turn out when “830016 (antisense kG*kG*kT*dG*d[5mC]*d[5mC]*d[5mC]*dA*dA*d[5mC]*d[5mC]*d[5mC]*dT*kT*k[5mC]*kA) [compound 830016]” was run?
Answer: 32%

Question: With “830017 (antisense kA*kG*kG*d[5mC]*dG*dG*dA*dA*dG*dG*dA*d[5mC]*dT*kT*kG*k[5mC]) [compound 830017]” as the substance, how does the “% Inhibition” value read?
Answer: 30%

Question: Which “% Inhibition” value does the source give for “830018 (antisense k[5mC]*k[5mC]*k[5mC]*dA*dA*d[5mC]*dA*dG*d[5mC]*d[5mC]*dA*dA*dA*kA*k[5mC]*kG) [compound 830018]” here?
Answer: 10%

Question: “830019 (antisense kA*kG*kG*d[5mC]*d[5mC]*d[5mC]*dA*dA*d[5mC]*dA*dG*d[5mC]*d[5mC]*kA*kA*kA) [compound 830019]” was tested. Which “% Inhibition” value did it give?
Answer: 16%

Question: Which “% Inhibition” value does the source give for “830020 (antisense kG*kA*kA*dA*dG*dG*d[5mC]*d[5mC]*d[5mC]*dA*dA*d[5mC]*dA*kG*k[5mC]*k[5mC]) [compound 830020]” here?
Answer: 23%

Question: With “830021 (antisense kG*kG*kG*dA*dA*dA*dG*dG*d[5mC]*d[5mC]*d[5mC]*dA*dA*k[5mC]*kA*kG) [compound 830021]” as the substance, how does the “% Inhibition” value read?
Answer: 42%

Question: For “830022 (antisense kG*kG*k[5mC]*dT*dG*d[5mC]*dA*dG*dA*dG*dT*dA*dT*kG*kG*kG) [compound 830022]”, which “% Inhibition” value is on record?
Answer: 59%

Question: For “830023 (antisense kT*k[5mC]*kA*d[5mC]*dA*dT*dG*d[5mC]*dT*dT*dT*dG*d[5mC]*kG*kG*kG) [compound 830023]”, which “% Inhibition” value is on record?
Answer: 57%

Question: Which “% Inhibition” value does the source give for “830024 (antisense kT*kG*kT*dA*dA*dA*dT*d[5mC]*dG*dA*dA*dA*dG*k[5mC]*kA*kA) [compound 830024]” here?
Answer: 40%

Question: “830026 (antisense kT*kT*kT*dT*dG*dT*dA*dA*dA*dT*d[5mC]*dG*dA*kA*kA*kG) [compound 830026]” was tested. Which “% Inhibition” value did it give?
Answer: 0%

Question: How did the “% Inhibition” value turn out when “830029 (antisense kT*k[5mC]*kA*d[5mC]*dT*d[5mC]*d[5mC]*dA*d[5mC]*dT*d[5mC]*dA*d[5mC]*k[5mC]*kG*kA) [compound 830029]” was run?
Answer: 56%

Question: For “830030 (antisense kA*k[5mC]*k[5mC]*dT*dA*dA*dT*dG*dT*d[5mC]*dA*dA*d[5mC]*kA*k[5mC]*kT) [compound 830030]”, which “% Inhibition” value is on record?
Answer: 36%

Question: How did the “% Inhibition” value turn out when “830031 (antisense kT*kA*k[5mC]*d[5mC]*dT*dA*dA*dT*dG*dT*d[5mC]*dA*dA*k[5mC]*kA*k[5mC]) [compound 830031]” was run?
Answer: 44%

Question: For “830032 (antisense kG*k[5mC]*kT*dA*d[5mC]*d[5mC]*dT*dA*dA*dT*dG*dT*d[5mC]*kA*kA*k[5mC]) [compound 830032]”, which “% Inhibition” value is on record?
Answer: 35%

Question: For “830033 (antisense kT*k[5mC]*k[5mC]*d[5mC]*d[5mC]*d[5mC]*dT*dT*dG*dG*dA*dA*dA*kT*kG*kG) [compound 830033]”, which “% Inhibition” value is on record?
Answer: 28%

Question: With “830034 (antisense kG*kG*k[5mC]*dT*dG*dA*dT*d[5mC]*dT*dG*dG*dA*dG*kA*kA*k[5mC]) [compound 830034]” as the substance, how does the “% Inhibition” value read?
Answer: 30%

Question: Which “% Inhibition” value does the source give for “830035 (antisense kA*kT*kT*dG*dG*d[5mC]*dT*dG*dA*dT*d[5mC]*dT*dG*kG*kA*kG) [compound 830035]” here?
Answer: 48%

Question: Which “% Inhibition” value does the source give for “830036 (antisense kT*kA*kT*dT*dG*dG*d[5mC]*dT*dG*dA*dT*d[5mC]*dT*kG*kG*kA) [compound 830036]” here?
Answer: 52%

Question: With “830038 (antisense k[5mC]*k[5mC]*kT*dA*dT*dT*dG*dG*d[5mC]*dT*dG*dA*dT*k[5mC]*kT*kG) [compound 830038]” as the substance, how does the “% Inhibition” value read?
Answer: 50%

Question: Which “% Inhibition” value does the source give for “830039 (antisense kT*kT*k[5mC]*d[5mC]*dT*dA*dT*dT*dG*dG*d[5mC]*dT*dG*kA*kT*k[5mC]) [compound 830039]” here?
Answer: 51%

Question: “830040 (antisense k[5mC]*kA*k[5mC]*dT*dT*d[5mC]*d[5mC]*dT*dA*dT*dT*dG*dG*k[5mC]*kT*kG) [compound 830040]” was tested. Which “% Inhibition” value did it give?
Answer: 44%

Question: For “830041 (antisense kT*k[5mC]*kA*d[5mC]*dT*dT*d[5mC]*d[5mC]*dT*dA*dT*dT*dG*kG*k[5mC]*kT) [compound 830041]”, which “% Inhibition” value is on record?
Answer: 56%

Question: With “830042 (antisense k[5mC]*kA*kG*dG*dT*dT*dA*dA*dT*d[5mC]*dA*d[5mC]*dT*kT*k[5mC]*k[5mC]) [compound 830042]” as the substance, how does the “% Inhibition” value read?
Answer: 64%

Question: How did the “% Inhibition” value turn out when “830043 (kT*kT*kG*dG*d[5mC]*dA*dG*dG*dT*dT*dA*dA*dT*k[5mC]*kA*k[5mC]; antisense) [compound 830043]” was run?
Answer: 45%

Question: Which “% Inhibition” value does the source give for “830045 (k[5mC]*k[5mC]*kG*dA*dT*dT*dG*dG*d[5mC]*dA*dG*dG*dT*kT*kA*kA; antisense) [compound 830045]” here?
Answer: 47%

Question: For “830046 (kT*k[5mC]*k[5mC]*dG*dA*dT*dT*dG*dG*d[5mC]*dA*dG*dG*kT*kT*kA; antisense) [compound 830046]”, which “% Inhibition” value is on record?
Answer: 60%

Same assay, conditions: SMAD7 mRNA, Hep3B cells, electroporation with 10,000 nM antisense oligonucleotide, approximately 24 hours, primer probe set RTS5062, relative to untreated control cells

Question: With “829989 (kG*kG*k[5mC]*d[5mC]*dG*d[5mC]*dG*dA*dG*dG*d[5mC]*dG*dG*kT*kG*kA; antisense) [compound 829989]” as the substance, how does the “% Inhibition” value read?
Answer: 2%

Question: Which “% Inhibition” value does the source give for “829990 (kG*kG*kG*d[5mC]*d[5mC]*dG*d[5mC]*dG*dA*dG*dG*d[5mC]*dG*kG*kT*kG; antisense) [compound 829990]” here?
Answer: 35%

Question: With “829991 (kA*kG*kG*dG*d[5mC]*d[5mC]*dG*d[5mC]*dG*dA*dG*dG*d[5mC]*kG*kG*kT; antisense) [compound 829991]” as the substance, how does the “% Inhibition” value read?
Answer: 26%

Question: How did the “% Inhibition” value turn out when “829992 (kG*k[5mC]*kA*dG*dG*dG*d[5mC]*d[5mC]*dG*d[5mC]*dG*dA*dG*kG*k[5mC]*kG; antisense) [compound 829992]” was run?
Answer: 10%

Question: For “829993 (kG*kG*k[5mC]*dA*dG*dG*dG*d[5mC]*d[5mC]*dG*d[5mC]*dG*dA*kG*kG*k[5mC]; antisense) [compound 829993]”, which “% Inhibition” value is on record?
Answer: 26%

Question: With “829996 (kT*kT*kT*dG*dT*d[5mC]*dT*dT*dA*dG*d[5mC]*dT*dG*kT*kG*kG; antisense) [compound 829996]” as the substance, how does the “% Inhibition” value read?
Answer: 54%

Question: Which “% Inhibition” value does the source give for “829997 (kG*kT*kT*dT*dG*dT*d[5mC]*dT*dT*dA*dG*d[5mC]*dT*kG*kT*kG; antisense) [compound 829997]” here?
Answer: 21%

Question: For “829998 (kT*kG*kT*dT*dT*dG*dT*d[5mC]*dT*dT*dA*dG*d[5mC]*kT*kG*kT; antisense) [compound 829998]”, which “% Inhibition” value is on record?
Answer: 34%

Question: For “829999 (k[5mC]*kT*kG*dT*dT*dT*dG*dT*d[5mC]*dT*dT*dA*dG*k[5mC]*kT*kG; antisense) [compound 829999]”, which “% Inhibition” value is on record?
Answer: 46%

Question: Which “% Inhibition” value does the source give for “830000 (kA*k[5mC]*kT*dG*dT*dT*dT*dG*dT*d[5mC]*dT*dT*dA*kG*k[5mC]*kT; antisense) [compound 830000]” here?
Answer: 51%

Question: For “830001 (kG*k[5mC]*k[5mC]*d[5mC]*dA*dA*d[5mC]*dT*dG*dT*dT*dT*dG*kT*k[5mC]*kT; antisense) [compound 830001]”, which “% Inhibition” value is on record?
Answer: 24%

Question: With “830002 (kT*kA*kG*d[5mC]*d[5mC]*d[5mC]*dA*dA*d[5mC]*dT*dG*dT*dT*kT*kG*kT; antisense) [compound 830002]” as the substance, how does the “% Inhibition” value read?
Answer: 43%

Question: “830003 (antisense kG*kG*k[5mC]*dA*dT*dT*d[5mC]*dT*dT*dT*dT*dA*dG*k[5mC]*k[5mC]*k[5mC]) [compound 830003]” was tested. Which “% Inhibition” value did it give?
Answer: 0%

Question: “830004 (antisense kT*kA*kA*dA*dG*dG*d[5mC]*d[5mC]*d[5mC]*dA*dG*d[5mC]*d[5mC]*kA*kT*kG) [compound 830004]” was tested. Which “% Inhibition” value did it give?
Answer: 24%

Question: “830005 (antisense k[5mC]*kT*k[5mC]*dA*d[5mC]*d[5mC]*dA*dG*dT*dT*dG*dG*dT*kT*kT*kG) [compound 830005]” was tested. Which “% Inhibition” value did it give?
Answer: 13%

Question: Which “% Inhibition” value does the source give for “830006 (antisense kA*k[5mC]*kT*d[5mC]*dA*d[5mC]*d[5mC]*dA*dG*dT*dT*dG*dG*kT*kT*kT) [compound 830006]” here?
Answer: 0%

Question: With “830007 (antisense k[5mC]*kT*kA*d[5mC]*dT*d[5mC]*dA*d[5mC]*d[5mC]*dA*dG*dT*dT*kG*kG*kT) [compound 830007]” as the substance, how does the “% Inhibition” value read?
Answer: 0%

Question: “830008 (antisense kT*kA*kG*dA*dG*dG*d[5mC]*dT*d[5mC]*dT*dA*dT*dT*kT*k[5mC]*kT) [compound 830008]” was tested. Which “% Inhibition” value did it give?
Answer: 0%

Question: Which “% Inhibition” value does the source give for “830009 (antisense kG*kT*kG*dT*dT*dA*dA*dA*dG*d[5mC]*dT*dG*dA*kG*k[5mC]*k[5mC]) [compound 830009]” here?
Answer: 52%

Question: With “830011 (antisense k[5mC]*k[5mC]*kA*dG*dT*d[5mC]*dT*d[5mC]*dA*dA*dA*dT*dG*kG*kG*k[5mC]) [compound 830011]” as the substance, how does the “% Inhibition” value read?
Answer: 25%

Question: Which “% Inhibition” value does the source give for “830012 (antisense kG*k[5mC]*k[5mC]*dA*dG*dT*d[5mC]*dT*d[5mC]*dA*dA*dA*dT*kG*kG*kG) [compound 830012]” here?
Answer: 37%

Question: Which “% Inhibition” value does the source give for “830013 (antisense kG*kT*kG*d[5mC]*d[5mC]*dA*dG*dT*d[5mC]*dT*d[5mC]*dA*dA*kA*kT*kG) [compound 830013]” here?
Answer: 55%
